# Assay results as given in US20240261375A1, “PHARMACEUTICAL COMPOSITION FOR TREATING OR PREVENTING DISORDER ASSOCIATED WITH ADMINISTRATION OF ANTICANCER AGENT” (LTT BIO-PHARMA CO., LTD., priority 2021, published 2024).
# Columns and labels:
# RAW cells = assay: Toxicity of anticancer agents against RAW cells (CellTiter-Glo viable cell count); assay type: cell-based; details: gemcitabine, oxaliplatin, cisplatin or carboplatin with simultaneous PC-SOD, 24 hours; FIG. 12-2
# Experimental: RAW cells were seeded on a 96-well plate at 20 000 cells/well (D-MEM high glucose medium containing 10% inactivated FBS). […] The number of viable cells was counted 24 hours later by measuring chemical luminescence by using CellTiter-Glo™ 2.0 Cell Viability Assay (Promega) and a plate reader (Tecan, Infinite M Plex). Cells for four wells were analyzed for each group.
# [1] = tested on: OXA-induced allodynia model rats; assay: Cold stimulation (acetone) test in OXA-induced allodynia model rats; assay type: in vivo, rat; details: OXA 10 mg/kg i.p. Days 1 and 2; PC-SOD 1 mg/kg caudal vein, prophylactic; FIG. 2
# Experimental: Five-week-old male SD rats (from 200 to 400 g) were used as laboratory animals, and OXA was administered into the peritoneal cavity of rats at a dose of 10 mg/kg. A total of two doses were given (Days 1 and 2). A solvent for OXA, i.e., a 5% glucose solution, was similarly administered to a control group.
# Laboratory animals were divided into three groups (n=8 per group): a control group, an OXA administration group, and a group receiving administration of OXA and PC-SOD 1 mg/kg (OXA+PC-SOD administration group). For the OXA+PC-SOD administration group, PC-SOD was administered into the caudal vein from 15 minutes after administration of OXA as prophylactic administration. A total of two doses were given (Days 1 and 2). A solvent for PC-SOD was similarly administered to the control group and the OXA administration group.
# Rats were placed in a container with a wire net bottom and acclimatized for 30 minutes, and then 0.1 mL of acetone was sprayed onto their hindlimb by using a spray for an organic solvent (No. 3530, Furupla Co., Ltd.) to give a cold stimulus by utilizing a cooling action at the time of vaporization of acetone. […] Specifically, the responses were assessed by scoring with four levels (Scores 0, 1, 2, and 3). Score 0 was to be given if animals were unresponsive as in a resting state. […]
# [2] = tested on: liver of OXA-treated rats; assay: Pathological assessment of liver disorder caused by oxaliplatin (HE staining); assay type: in vivo, rat; details: PC-SOD 1 mg/kg, mangafodipir dose not given, FIG. 5
# Description: A liver tissue was collected and fixed with 10% neutral buffered formalin to prepare a paraffin block by using Histos 5 (Milestone) and an embedding center (EG1160, Leica). The sample block was thinly sliced at a thickness of 3 μm by using a microtome (MR2245, Leica) to prepare a slide. The prepared slide was stained by HE staining, enclosed, and observed at 200 and 400-fold magnifications by using the optical microscope function of All-in-One Fluorescence Microscope (BZ-X800, Keyence Corporation). Observation and assessment were performed by observing the whole section. Two to four representative tissue images were randomly taken up, and alteration in the tissue structure, such as inflammation and necrosis, was observed and assessed (Scale bar=200 μm).
# [3] = tested on: kidney of CIS-treated rats; assay: Assessment of kidney disorder caused by cisplatin in rats; assay type: in vivo, rat; details: CIS 3 mg/kg i.p. 8 doses
# Experimental: Six to eight-week-old male SD rats (from 200 to 400 g) were used. […] A total of eight doses were given with a regimen of twice weekly for four weeks (Days 1, 2, 7, 8, 13, 14, 19, and 20). A solvent for CIS, i.e., physiological saline, was similarly administered to a control group. […] Laboratory animals were divided into three groups: a control group, a CIS administration group, and a group receiving administration of CIS and PC-SOD 1 mg/kg (CIS+PC-SOD administration group) (n=6 per group).
# For an experiment of prevention, PC-SOD was administered into the caudal vein from five to 15 minutes after CIS administration in the CIS+PC-SOD administration group. A total of eight doses were given with a regimen of twice weekly for four weeks (Days 1, 2, 7, 8, 13, 14, 19, and 20). A solvent for PC-SOD was similarly administered to the control group and the CIS administration group. The rat kidney weight was measured, and changes in the kidney weight were corrected with body weight. Further, a photograph of the kidney was taken to check changes in size and morphology of the kidney (Scale bar=10 mm).
# For pathological analysis, a split was put in the sagittal plane of the collected kidney, and the kidney was fixed with 10% formalin to prepare a paraffin block by using Histos 5 (Milestone) and an embedding center (EG1160, Leica). The sample block was thinly sliced by using a microtome (MR2245, Leica) at a thickness of 3 μm to prepare a slide. The prepared slide was subjected to Periodic acid-Schiff (PAS) staining for assessment of clinical condition and Picrosirius Red staining for assessment of fibrosis. A fibrosis marker α-SMA was stained by an immunostaining method. […] Observation and assessment were performed by observing the whole section. Four to nine images of tissue on the cortical side on which the disorder was induced were randomly taken up, and inflammation, tubular necrosis, protein agglutination in renal tubules, vacuolation, and necrosis were assessed for changes in clinical condition. […] (Scale bar=500 μm (FIG. 11-1), Scale bar=200 μm (FIGS. 11-2 and 11-3)).
substance,measurement,setting,value
lecithinized superoxide dismutase [PC-SOD],anticancer agent-dependent decrease in number of viable RAW cells,RAW cells,significantly suppressed the anticancer agent-dependent decreases in the number of viable cells dependently on the concentration of PC-SOD
same,increase in score for cold stimulus (acetone test),[1],significantly suppressed
same,necrosis of liver cells caused by OXA,[2],a suppressive effect on necrosis of liver cells caused by OXA was shown
same,increase in kidney weight and swelling of the kidney caused by CIS,"[3]; PC-SOD 1 mg/kg caudal vein, FIG. 10-1, 10-2",the suppressive effect on an increase in the kidney weight and swelling of the kidney caused by CIS was confirmed
same,pathological damage to the kidney caused by CIS (PAS staining),"[3]; PC-SOD 1 mg/kg, FIG. 11-1",a suppressive effect on pathological damage to the kidney caused by CIS was observed
same,renal fibrosis caused by CIS (Picrosirius Red and α-SMA staining),"[3]; PC-SOD 1 mg/kg, FIG. 11-2, 11-3",decreases of fibrosis-positive regions in the kidney caused by CIS were detected
